Assay results reported in US5051419A, “Prevention or elimination of mycoplasma contamination of animal or plant cell cultures” (Dainippon Pharmaceutical Co., Ltd., priority 1988, dated 1991).
In brackets after ≈: the same amount, converted by molar mass.

Columns and labels:
mycoplasma [1] = assay: Anti-mycoplasmal activity (MIC), agar-dilution method, all species of Table 1 together; assay type: cell-based; conditions: in words
Experimental: The minimum growth inhibitory concentrations (MIC; μg/ml) of the test chemicals were measured by the agar-dilution method.
(1) Preparation of a mycoplasma suspension for inoculation
A stored frozen suspension of mycoplasma (0.2 to 0.3 ml) was inoculated in 2 to 3 ml of a preculture medium to be described later. It was serially diluted tenfold until the dilution ratio reached 10,000 times. These diluted solutions were cultivated at 37° C. for 2 to 7 days. A culture having the highest dilution ratio was selected from those cultures in which a color change of the media was noted as a result of mycoplasma growth. It was diluted to 100 times with the preculture medium to prepare a mycoplasma suspension for inoculation.
(2) Preparation of agar plates containing the test chemicals
A 1,000 μg/ml aqueous solution of each test chemical was prepared (a difficultly-soluble chemical was dissolved by adding an equimolar amount of sodium hydroxide; the same applies hereinafter). The solution was used as a base solution and its twofold serial dilutions were prepared. The diluted solutions were pipetted on plastic petri dishes each in an amount of 1 ml. […]

[2] = tested on: human melanoma cells [II]; assay: Activity of eliminating spontaneously contaminated mycoplasmas, cell [II]; assay type: cell-based, mycoplasma species unknown; human cells; also: key: +: mycoplasma positive; -: mycoplasma negative
Experimental: Mycoplasma-contaminated L-929 cells were cultivated as described in the preceding section. A 1,000 μg/ml aqueous solution of a test chemical was prepared, and diluted to predetermined concentrations with Eagle's minimum essential medium. The diluted solutions were added to the culture medium. Two petri dishes were used for each concentration of the test chemical, and two circular cover glasses were put in one of them for examination of mycoplasma. No cover glass was put in the other petri dish, and it was used for subcultivation. Cultivation in the test chemical-containing medium was carried out for 4 days, and thereafter, the cultivation was continued for 3 weeks in a drug-free medium. Medium replacement was effected every 3 to 4 days, and subcultivation was carried out once a week. Examination for mycoplasma contamination was performed on the 4th and 7th days, and thereafter every week. The mycoplasmas were detected by the highly specific DNA-fluorochromic staining method.
(§1) The activity of test compound to eliminate mycoplasma contamination was tested as in Test Example 3 on spontaneously contaminated human lung carcinoma cells [I] and human melanoma cells [II].
(§2) The period during which the cultivation was continued in the presence of the test chemicals was 7 days, and the mycoplasma species which infected the cells were unknown.

[3] = Cytotoxicity on FL cells (cell proliferation inhibition); assay type: cell-based, human; conditions: human, fl human amnion cells; ratio of FL cell IC50 to MIC for mycoplasmas
Experimental: (§3) Whether test chemicals would inhibit growth of cells was examined.
(§4) A 1,000 μg/ml aqueous solution of each of the test chemicals was serially diluted twofold with Eagle's minimum essential medium.
(§5) FL human-amnion cells (2×10^4 cells) were suspended in 3.6 ml of 10% FBS-MEM medium, put in petri dishes (diameter 60 mm) for tissue culture, and cultivated at 37° C. in 5% CO2 humidified atmosphere for 48 hours. The test chemical solution prepared as above was added in an amount of 0.4 ml to each of the petri dishes in predetermined concentrations, and the cells were cultivated for 3 days. After the cultivation, the medium was removed, and the remainder was washed once with Dulbecco's phosphate buffer (pH 7.4). The cells were peeled off by adding 0.2 ml of a 2.5% trypsin-0.002% EDTA mixed solution (1:9) and properly diluted with 10% FBS-MEM medium. Then, the number of the cells was counted by an Erma hemocytometer.
(§6) The cell proliferation rate was calculated by following formula [formula]

FL human-amnion cells = assay: as above; assay type: cell-based; conditions: for IC50: Homo sapiens, 72 h, FL cells, 3 days, read-out: IC50 (50% cell proliferation inhibitory concentration)
Experimental: as §3, §4, §5, §6

Staphylococcus aureus = assay: Antibacterial activity (MIC); assay type: cell-based; conditions: for MIC: unit inferred
mycoplasma [4] = conditions: in words, background; cited from earlier work
mycoplasma [5] = assay: Activity of eliminating spontaneously contaminated mycoplasmas, Test Example 4 as a whole; assay type: cell-based
Experimental: as §1, §2

[6] = tested on: chromosomes of animals or plants; assay: Deleterious effects on chromosomes; conditions: in words

CC1CN(c2c(F)c(N)c3c(=O)c(C(=O)O)cn(C4CC4)c3c2F)CCN1 (centres unmarked) [Compound 1]
anti-mycoplasmal activity (MIC) compared with control compounds (mycoplasma [1]): better than those of control compounds 2 to 4
mycoplasma elimination ([2]; 0.2 μg/ml, day 0): +
mycoplasma elimination ([2]; 0.2 μg/ml, day 7): -
mycoplasma elimination ([2]; 0.2 μg/ml, day 14): +
mycoplasma elimination ([2]; 0.2 μg/ml, day 21): +
mycoplasma elimination ([2]; 0.2 μg/ml, day 28): +
mycoplasma elimination ([2]; 0.39 μg/ml, day 0): +
mycoplasma elimination ([2]; 0.39 μg/ml, day 7): -
mycoplasma elimination ([2]; 0.39 μg/ml, day 14): -
mycoplasma elimination ([2]; 0.39 μg/ml, day 21): -
mycoplasma elimination ([2]; 0.39 μg/ml, day 28): -
selectivity ratio at 72 h [3]: 66 to 528
IC50 (FL human-amnion cells): 13.2 µg/mL (≈ 34.9 µM)
MIC (Staphylococcus aureus; Staphylococcus aureus): 0.025 µg/mL (≈ 0.0661 µM)

CN(C)c1ccc(O)c2c1C[C@H]1C[C@H]3[C@H](N(C)C)C(O)=C(C(N)=O)C(=O)[C@@]3(O)C(O)=C1C2=O [Compound 3, minocycline]
minimum growth inhibitory concentration (MIC) for mycoplasma (mycoplasma [4]): low
mode of action on mycoplasma (mycoplasma [4]): only act bacteriostatically and not mycoplasmacidally

NCC1CN(c2c(F)c(N)c3c(=O)c(C(=O)O)cn(C4CC4)c3c2F)CCO1 (centres unmarked) [Compound A, 5-amino-7-(2-aminomethylmorpholino)-1-cyclopropyl-6,8-difluoro-1,4-dihydro-4-oxoquinoline-3-carboxylic acid]
anti-mycoplasmal activity (MIC) compared with control compounds (mycoplasma [1]): more potent than those of control compounds 1 to 4
mycoplasma elimination ([2]; 0.1 μg/ml, day 0): +
mycoplasma elimination ([2]; 0.1 μg/ml, day 7): -
mycoplasma elimination ([2]; 0.1 μg/ml, day 14): +
mycoplasma elimination ([2]; 0.1 μg/ml, day 21): +
mycoplasma elimination ([2]; 0.1 μg/ml, day 28): +
mycoplasma elimination ([2]; 0.2 μg/ml, day 0): +
mycoplasma elimination ([2]; 0.2 μg/ml, day 7): -
mycoplasma elimination ([2]; 0.2 μg/ml, day 14): -
mycoplasma elimination ([2]; 0.2 μg/ml, day 21): -
mycoplasma elimination ([2]; 0.2 μg/ml, day 28): -
minimal effective concentration (mycoplasma [5]; Mycoplasma, 168 h, spontaneously contaminated cells [I] and [II]): 0.2 µg/mL
mycoplasma eliminating concentration relative to control compound 1 (mycoplasma [5]; fraction of that of control compound 1): 1/2
mycoplasma eliminating concentration relative to control compound 2 (ciprofloxacin) (mycoplasma [5]; fraction of that of control compound 2): 1/32
selectivity ratio at 72 h [3]: 180 to 1440
IC50 (FL human-amnion cells): 18 µg/mL (≈ 45.6 µM)
safety range (FL human-amnion cells; in words, IC50/MIC): the safety range is broadest in compound A
toxicity on cultivated cells (FL human-amnion cells; in words, summary): little toxicity on cultivated cells
MIC (Staphylococcus aureus; Staphylococcus aureus): 0.0063 µg/mL (≈ 0.016 µM)
antibacterial activity (Staphylococcus aureus; in words): potent antibacterial activity and is superior to control compounds 1 to 4
antibacterial activity relative to compound 1 (Staphylococcus aureus; in words, Staphylococcus aureus): about four times as potent antibacterial activity as compound 1
deleterious effects on chromosomes [6]: excellent
